In patent US5114843A, “Humoral hypercalcemic factor antagonists” (Merck & Co., Inc., priority 1991, dated 1992):

Biological target: T1, Bovine renal cortical plasma membranes (Bos taurus, UniProt Q1LZF7)
T1 construct: from tissue; host or cells: bovine renal cortex plasma membranes
T1 sequence (Q1LZF7 29-589): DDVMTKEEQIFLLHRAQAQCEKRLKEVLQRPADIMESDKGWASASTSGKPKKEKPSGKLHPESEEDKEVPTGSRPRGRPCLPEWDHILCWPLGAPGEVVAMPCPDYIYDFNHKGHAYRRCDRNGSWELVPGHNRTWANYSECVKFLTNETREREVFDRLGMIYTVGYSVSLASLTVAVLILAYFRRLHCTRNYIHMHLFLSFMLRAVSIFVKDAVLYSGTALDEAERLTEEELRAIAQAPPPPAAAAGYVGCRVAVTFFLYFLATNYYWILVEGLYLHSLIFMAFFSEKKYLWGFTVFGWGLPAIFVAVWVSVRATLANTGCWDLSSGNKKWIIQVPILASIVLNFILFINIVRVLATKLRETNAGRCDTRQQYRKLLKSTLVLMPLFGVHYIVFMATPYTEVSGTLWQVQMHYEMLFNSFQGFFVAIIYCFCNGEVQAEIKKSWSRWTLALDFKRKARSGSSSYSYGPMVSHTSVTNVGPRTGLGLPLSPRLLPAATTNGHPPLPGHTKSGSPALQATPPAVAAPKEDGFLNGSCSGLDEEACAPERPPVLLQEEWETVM
Test: HCF binding (receptor) assay with [Nle8,18,(125I)-Tyr34]bPTH(1-34)NH2 radioligand
Conditions: radioligand [Nle8,18,(125I)-Tyr34]bPTH(1-34)NH2, 30 min at 21° C
Experimental: HCF analogues were analysed in a new receptor assay (Goldman et al., Endocrinol. (1988) 123: 1468-1475) which modified the assay reported in Rosenblatt et al., Endocrin. 107: 545-550 (1980). The binding assay used [Nle^8,18 (^125 I)-Tyr^34 ]bPTH (1-34)NH2 which was purified by HPLC (Novapak C18, 32-35% CH3 CN in 0.1% TFA) and was stored as aliquots in 25 mM TrisHCl/1%BSA at -70° C. Bovine renal cortical plasma membranes were incubated with radioligand (25,000 cpm) in the absence or presence of HCF analogues in a Tris-containing buffer (250 μl) for 30 min. at 21° C. Once equilibrium was reached, bound and free radioligand were separated by centrifugation.
High specific binding (85%) to bovine renal cortical membranes was obtained consistently.

Question: Which Ki does the source give for `CC[C@H](C)[C@H](NC(=O)[C@H](CC(C)C)NC(=O)[C@H](Cc1c[nH]cn1)NC(=O)[C@H](Cc1c[nH]cn1)NC(=O)[C@H](CC(C)C)NC(=O)[C@H](Cc1ccccc1)NC(=O)[C@H](Cc1ccccc1)NC(=O)[C@H](CCCNC(=N)N)NC(=O)[C@H](CCCNC(=N)N)NC(=O)[C@H](CCCNC(=N)N)NC(=O)[C@H](CC(C)C)NC(=O)[C@H](CC(=O)O)NC(=O)[C@H](CCC(N)=O)NC(=O)[C@@H](NC(=O)[C@@H](N)CO)[C@@H](C)CC)C(=O)N[C@@H](C)C(=O)N[C@@H](CCC(=O)O)C(=O)N[C@H](C(=O)N[C@@H](Cc1c[nH]cn1)C(=O)N[C@H](C(=O)N[C@@H](C)C(N)=O)[C@@H](C)O)[C@@H](C)CC` [hHCF(14-34)NH2] here?
Answer: 1.4 ± 0.083 µM
